# Test results taken from the kinase profiling compilation of Christmann-Franck et al. (2016).
# Columns and labels:
# Assay in all cases: radiometric filter-binding kinase assay, Kinaseprofiler
# [1] = test system: HIPK2 (human), Q9H2X6 [I471N]; settings: ATP 10 µM
# [2] = test system: PAK2 (human), Q13177 [L150F, P225T, V383I; A339 del]; settings: ATP 90 µM
# [3] = test system: MET (human), P08581 [A1209G/V1290L]; settings: ATP 45 µM
# [4] = test system: FLT4 (human), P35916 [V1128L/H1146R]; settings: ATP 200 µM
# [5] = test system: PRKD1 (human), Q15139 [R135A]; settings: ATP 45 µM
# [6] = test system: BLK (human), P51451 [M278V]; settings: ATP 45 µM
# [7] = test system: TGFBR1 (human), P36897 [T204D]; settings: ATP 10 µM
# TGFBR1 (human), P36897 [T204D], sequence (P36897 whole entry T204D, looked up): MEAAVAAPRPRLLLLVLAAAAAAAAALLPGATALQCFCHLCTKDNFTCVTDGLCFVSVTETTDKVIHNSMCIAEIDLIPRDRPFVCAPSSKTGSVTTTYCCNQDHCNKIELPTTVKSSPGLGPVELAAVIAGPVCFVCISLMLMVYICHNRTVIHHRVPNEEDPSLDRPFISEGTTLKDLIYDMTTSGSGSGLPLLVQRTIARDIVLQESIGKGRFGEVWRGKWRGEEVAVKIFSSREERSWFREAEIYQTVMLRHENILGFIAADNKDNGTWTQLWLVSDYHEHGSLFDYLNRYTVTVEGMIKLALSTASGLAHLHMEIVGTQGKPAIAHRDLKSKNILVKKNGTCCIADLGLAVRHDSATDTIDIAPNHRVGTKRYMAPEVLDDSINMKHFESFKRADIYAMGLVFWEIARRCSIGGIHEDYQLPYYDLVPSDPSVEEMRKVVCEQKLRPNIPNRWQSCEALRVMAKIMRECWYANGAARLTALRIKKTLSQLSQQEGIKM
# PRKD1 (human), Q15139 [R135A], sequence (Q15139 whole entry, looked up, stated change not applied): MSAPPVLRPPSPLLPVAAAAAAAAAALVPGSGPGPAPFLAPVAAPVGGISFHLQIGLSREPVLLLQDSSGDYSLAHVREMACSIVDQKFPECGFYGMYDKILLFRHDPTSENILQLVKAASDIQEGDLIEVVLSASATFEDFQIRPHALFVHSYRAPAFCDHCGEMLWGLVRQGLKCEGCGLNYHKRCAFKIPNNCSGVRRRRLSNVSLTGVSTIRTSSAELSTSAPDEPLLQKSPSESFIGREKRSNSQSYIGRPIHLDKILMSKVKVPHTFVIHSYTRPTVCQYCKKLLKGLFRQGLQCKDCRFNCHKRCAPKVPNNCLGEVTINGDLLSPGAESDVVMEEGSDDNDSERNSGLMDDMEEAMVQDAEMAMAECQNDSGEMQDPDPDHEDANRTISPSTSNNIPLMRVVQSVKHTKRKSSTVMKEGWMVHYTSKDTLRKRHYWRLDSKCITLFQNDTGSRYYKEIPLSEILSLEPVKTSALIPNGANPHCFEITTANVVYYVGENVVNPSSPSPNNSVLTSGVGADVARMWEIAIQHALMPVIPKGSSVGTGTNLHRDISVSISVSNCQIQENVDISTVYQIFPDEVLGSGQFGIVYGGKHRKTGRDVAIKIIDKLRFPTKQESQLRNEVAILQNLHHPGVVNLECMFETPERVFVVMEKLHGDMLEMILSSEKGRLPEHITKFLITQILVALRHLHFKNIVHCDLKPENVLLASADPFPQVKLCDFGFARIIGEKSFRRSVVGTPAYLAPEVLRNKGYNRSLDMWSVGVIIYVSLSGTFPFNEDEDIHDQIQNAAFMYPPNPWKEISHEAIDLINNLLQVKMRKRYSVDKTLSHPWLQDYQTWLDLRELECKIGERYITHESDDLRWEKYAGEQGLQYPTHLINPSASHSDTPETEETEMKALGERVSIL
# FLT4 (human), P35916 [V1128L/H1146R], sequence (P35916 whole entry, looked up, stated change not applied): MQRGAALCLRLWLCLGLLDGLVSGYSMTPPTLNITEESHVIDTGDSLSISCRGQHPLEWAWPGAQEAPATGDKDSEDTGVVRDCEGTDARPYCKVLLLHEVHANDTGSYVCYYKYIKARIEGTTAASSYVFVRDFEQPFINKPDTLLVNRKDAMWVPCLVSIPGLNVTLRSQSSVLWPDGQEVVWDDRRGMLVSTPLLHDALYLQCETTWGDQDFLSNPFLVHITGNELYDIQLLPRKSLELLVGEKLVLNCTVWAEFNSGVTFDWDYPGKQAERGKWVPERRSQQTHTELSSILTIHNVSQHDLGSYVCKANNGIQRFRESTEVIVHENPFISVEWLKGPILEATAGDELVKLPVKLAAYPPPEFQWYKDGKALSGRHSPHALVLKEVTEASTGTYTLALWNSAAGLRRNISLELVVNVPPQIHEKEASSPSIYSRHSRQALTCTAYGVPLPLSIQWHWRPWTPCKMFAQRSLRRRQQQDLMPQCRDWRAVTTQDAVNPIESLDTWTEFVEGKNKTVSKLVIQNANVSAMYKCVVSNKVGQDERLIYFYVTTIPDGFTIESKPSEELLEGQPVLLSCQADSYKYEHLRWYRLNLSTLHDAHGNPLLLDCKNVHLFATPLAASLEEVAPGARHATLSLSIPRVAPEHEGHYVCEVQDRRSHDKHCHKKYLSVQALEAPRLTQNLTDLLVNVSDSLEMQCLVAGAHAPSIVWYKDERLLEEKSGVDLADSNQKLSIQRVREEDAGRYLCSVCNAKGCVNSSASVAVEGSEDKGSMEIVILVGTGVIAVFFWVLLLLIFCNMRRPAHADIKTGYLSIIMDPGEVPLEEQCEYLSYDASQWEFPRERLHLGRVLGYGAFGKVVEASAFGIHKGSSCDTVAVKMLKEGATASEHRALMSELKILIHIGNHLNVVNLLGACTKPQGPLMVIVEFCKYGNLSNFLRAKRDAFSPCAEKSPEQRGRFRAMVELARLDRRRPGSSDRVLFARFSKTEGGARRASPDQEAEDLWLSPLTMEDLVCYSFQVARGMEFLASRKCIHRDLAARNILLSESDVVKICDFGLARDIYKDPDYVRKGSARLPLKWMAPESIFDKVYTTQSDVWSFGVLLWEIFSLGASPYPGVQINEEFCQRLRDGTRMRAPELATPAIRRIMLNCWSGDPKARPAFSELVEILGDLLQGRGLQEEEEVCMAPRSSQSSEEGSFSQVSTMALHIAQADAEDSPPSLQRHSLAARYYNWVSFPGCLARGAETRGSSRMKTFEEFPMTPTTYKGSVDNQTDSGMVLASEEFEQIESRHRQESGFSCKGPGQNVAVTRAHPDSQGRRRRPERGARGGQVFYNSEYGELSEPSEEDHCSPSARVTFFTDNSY
# PAK2 (human), Q13177 [L150F, P225T, V383I; A339 del], sequence (Q13177 whole entry, looked up, stated change not applied): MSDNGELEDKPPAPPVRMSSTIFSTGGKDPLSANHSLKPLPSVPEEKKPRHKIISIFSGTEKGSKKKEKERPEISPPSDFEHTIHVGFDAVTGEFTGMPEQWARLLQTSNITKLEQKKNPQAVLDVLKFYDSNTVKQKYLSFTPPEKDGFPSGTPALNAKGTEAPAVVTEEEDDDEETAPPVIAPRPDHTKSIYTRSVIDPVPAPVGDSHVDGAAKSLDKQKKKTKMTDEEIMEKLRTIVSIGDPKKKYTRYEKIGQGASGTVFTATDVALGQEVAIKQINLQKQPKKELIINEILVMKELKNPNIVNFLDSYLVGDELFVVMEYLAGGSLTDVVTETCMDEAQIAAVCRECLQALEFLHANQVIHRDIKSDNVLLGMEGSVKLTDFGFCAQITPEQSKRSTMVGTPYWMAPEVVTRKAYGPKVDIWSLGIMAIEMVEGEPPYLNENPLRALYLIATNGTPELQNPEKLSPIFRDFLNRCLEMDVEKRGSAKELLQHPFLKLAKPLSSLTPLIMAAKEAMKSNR
# HIPK2 (human), Q9H2X6 [I471N], sequence (Q9H2X6 whole entry, looked up, stated change not applied): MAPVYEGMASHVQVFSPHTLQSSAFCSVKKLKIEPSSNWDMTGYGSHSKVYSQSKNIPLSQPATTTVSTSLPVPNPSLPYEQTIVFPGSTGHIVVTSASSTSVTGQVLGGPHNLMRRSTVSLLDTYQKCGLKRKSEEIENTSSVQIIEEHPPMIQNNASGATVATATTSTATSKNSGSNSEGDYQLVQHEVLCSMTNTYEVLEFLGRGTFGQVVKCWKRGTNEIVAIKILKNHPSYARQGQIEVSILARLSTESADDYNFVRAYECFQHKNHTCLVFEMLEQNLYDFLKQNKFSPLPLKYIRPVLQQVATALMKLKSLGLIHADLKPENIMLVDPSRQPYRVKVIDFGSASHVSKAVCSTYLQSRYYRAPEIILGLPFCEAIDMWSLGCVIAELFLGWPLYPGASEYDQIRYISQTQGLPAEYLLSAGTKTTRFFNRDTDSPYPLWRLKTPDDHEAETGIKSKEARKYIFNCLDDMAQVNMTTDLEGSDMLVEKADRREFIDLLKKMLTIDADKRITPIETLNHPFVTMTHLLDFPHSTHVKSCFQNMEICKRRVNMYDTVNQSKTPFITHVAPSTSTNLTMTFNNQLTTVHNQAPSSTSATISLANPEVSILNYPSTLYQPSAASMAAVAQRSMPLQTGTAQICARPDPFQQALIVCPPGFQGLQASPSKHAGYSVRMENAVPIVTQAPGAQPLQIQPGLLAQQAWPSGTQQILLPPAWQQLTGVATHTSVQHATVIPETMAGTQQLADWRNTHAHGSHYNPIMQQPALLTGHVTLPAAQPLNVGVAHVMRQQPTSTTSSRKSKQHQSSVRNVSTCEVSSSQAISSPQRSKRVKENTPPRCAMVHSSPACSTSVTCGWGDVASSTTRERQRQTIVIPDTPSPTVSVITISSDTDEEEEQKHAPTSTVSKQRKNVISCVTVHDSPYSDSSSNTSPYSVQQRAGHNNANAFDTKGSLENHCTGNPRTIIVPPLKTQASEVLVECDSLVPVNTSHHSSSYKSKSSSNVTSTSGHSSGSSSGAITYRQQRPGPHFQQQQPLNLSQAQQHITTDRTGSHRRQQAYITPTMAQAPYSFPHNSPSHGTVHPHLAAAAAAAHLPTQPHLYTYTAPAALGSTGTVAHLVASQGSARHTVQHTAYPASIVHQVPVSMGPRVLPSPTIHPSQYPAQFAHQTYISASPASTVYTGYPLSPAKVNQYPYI
# BLK (human), P51451 [M278V], sequence (P51451 whole entry, looked up, stated change not applied): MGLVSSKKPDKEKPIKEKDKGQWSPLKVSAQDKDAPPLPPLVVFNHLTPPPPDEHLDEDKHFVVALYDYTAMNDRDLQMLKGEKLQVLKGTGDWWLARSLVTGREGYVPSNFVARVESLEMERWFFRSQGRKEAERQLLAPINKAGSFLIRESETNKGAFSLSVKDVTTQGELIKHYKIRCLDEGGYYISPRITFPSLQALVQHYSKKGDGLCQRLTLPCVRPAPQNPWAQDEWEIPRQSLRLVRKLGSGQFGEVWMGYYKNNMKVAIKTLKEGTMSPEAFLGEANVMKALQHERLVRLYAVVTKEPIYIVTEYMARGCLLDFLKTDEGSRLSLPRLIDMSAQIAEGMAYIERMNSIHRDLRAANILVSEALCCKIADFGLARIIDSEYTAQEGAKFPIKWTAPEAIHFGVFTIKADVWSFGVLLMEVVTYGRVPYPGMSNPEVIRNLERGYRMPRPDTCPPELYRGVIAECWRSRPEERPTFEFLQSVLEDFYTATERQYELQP
residual activity ([1]; compound 1.0 µM),residual activity ([2]; compound 1.0 µM),residual activity ([2]; compound 10.0 µM),residual activity ([3]; compound 1.0 µM),residual activity ([3]; compound 10.0 µM),residual activity ([4]; compound 1.0 µM),residual activity ([4]; compound 10.0 µM),residual activity ([1]; compound 10.0 µM),residual activity ([5]; compound 1.0 µM),residual activity ([5]; compound 10.0 µM),residual activity ([6]; compound 1.0 µM),residual activity ([6]; compound 10.0 µM),residual activity ([7]; compound 1.0 µM),residual activity ([7]; compound 10.0 µM),Compound
48%,103%,54%,86%,13%,-1%,1%,8%,113%,65%,11%,0%,104%,73%,O=C1Nc2ccccc2/C1=C1\Nc2ccccc2\C1=N/O
,100%,,,,,,,,,,,,,O=C(Nc1cccc(Nc2nccc(Nc3cccc(C(F)(F)F)c3)n2)c1)C1CC1
55%,96%,86%,87%,75%,2%,0%,15%,32%,-1%,97%,45%,88%,74%,O=C1c2ccccc2-c2n[nH]c3cccc1c23

Compound,residual activity ([1]; compound 1.0 µM),residual activity ([2]; compound 1.0 µM),residual activity ([2]; compound 10.0 µM),residual activity ([3]; compound 1.0 µM),residual activity ([3]; compound 10.0 µM),residual activity ([4]; compound 1.0 µM),residual activity ([4]; compound 10.0 µM),residual activity ([1]; compound 10.0 µM),residual activity ([5]; compound 1.0 µM),residual activity ([5]; compound 10.0 µM),residual activity ([6]; compound 1.0 µM),residual activity ([6]; compound 10.0 µM),residual activity ([7]; compound 1.0 µM),residual activity ([7]; compound 10.0 µM)
CN[C@@H]1C[C@H]2O[C@@](C)([C@@H]1OC)n1c3ccccc3c3c4c(c5c6ccccc6n2c5c31)C(=O)NC4,52%,,,,,,,,,,,,,
